Reference: ChEMBL document CHEMBL3885881, “DrugMatrix”

Species on record: Rattus norvegicus
Experiment: DrugMatrix - Regimen: Daily Repeat
Assay type: toxicity, organism-based, Sprague-Dawley
Parameters: regimen Daily Repeat, gender Male, age 6-8 weeks
Settings: in vivo, vehicle 100 % SALINE; for ABSOLUTE MONOCYTE / ABSOLUTE SEGMENTED NEUTROPHIL / BASOPHIL / EOSINOPHIL / ERYTHROCYTE COUNT / HEMATOCRIT / HEMOGLOBIN / LEUKOCYTE COUNT / LYMPHOCYTE / MEAN CORPUSCULAR HEMOGLOBIN / MEAN CORPUSCULAR HEMOGLOBIN CONCENTRATION / MEAN CORPUSCULAR VOLUME / MONOCYTE / NEUTROPHIL / PLATELET COUNT / ABSOLUTE BASOPHIL / ABSOLUTE EOSINOPHIL / ABSOLUTE LYMPHOCYTE: tissue Blood; for ALANINE AMINOTRANSFERASE / ALBUMIN / ALKALINE PHOSPHATASE / ASPARTATE AMINOTRANSFERASE / BLOOD UREA NITROGEN / CHLORIDE / CHOLESTEROL / CREATINE PHOSPHOKINASE / CREATININE / GLUCOSE / LACTATE DEHYDROGENASE / LIPASE / PHOSPHORUS / POTASSIUM / SODIUM / TOTAL BILIRUBIN / TOTAL PROTEIN / URIC ACID: tissue Plasma
[1] = ip, 160 mg/kg, 120 h, route intraperitoneal, dose level High, time 5 day
[2] = ip, 160 mg/kg, […], route intraperitoneal, dose level High, time 14 day
[3] = ip, 160 mg/kg, […], route intraperitoneal, dose level High, time 28 day
[4] = iv, 0 mg/kg, 72 h, dose level Control, time 3 day

NCC[C@H](O)C(=O)N[C@@H]1C[C@H](N)[C@@H](O[C@H]2O[C@H](CN)[C@@H](O)[C@H](O)[C@H]2O)[C@H](O)[C@H]1O[C@H]1O[C@H](CO)[C@@H](O)[C@H](N)[C@H]1O [AMIKACIN]
ABSOLUTE MONOCYTE [1]: 130 cells/µL
ABSOLUTE SEGMENTED NEUTROPHIL [1]: 830 cells/µL
BASOPHIL [1]: 0.52%
EOSINOPHIL [1]: 0.92%
ERYTHROCYTE COUNT [1]: 7.72 x10E6/uL
HEMATOCRIT [1]: 47.66%
HEMOGLOBIN [1]: 15.46 G/DL
LEUKOCYTE COUNT [1]: 8.36 x10E3/uL
LYMPHOCYTE [1]: 86.2%
MEAN CORPUSCULAR HEMOGLOBIN [1]: 20.02 pg
MEAN CORPUSCULAR HEMOGLOBIN CONCENTRATION [1]: 32.44 G/DL
MEAN CORPUSCULAR VOLUME [1]: 61.7 fL
MONOCYTE [1]: 1.62%
NEUTROPHIL [1]: 10.4%
PLATELET COUNT [1]: 1365.6 x10E3/uL
ALANINE AMINOTRANSFERASE [1]: 28.8 u/L
ALBUMIN [1]: 3.56 G/DL
ALKALINE PHOSPHATASE [1]: 209.4 u/L
ASPARTATE AMINOTRANSFERASE [1]: 80.6 u/L
BLOOD UREA NITROGEN [1]: 14.6 mg/dL
CHLORIDE [1]: 107.2 MEQ/L
CHOLESTEROL [1]: 62.4 mg/dL
CREATINE PHOSPHOKINASE [1]: 231.2 u/L
CREATININE [1]: 0.56 mg/dL
GLUCOSE [1]: 136.6 mg/dL
LACTATE DEHYDROGENASE [1]: 109.8 u/L
LIPASE [1]: 23.8 u/L
PHOSPHORUS [1]: 11.74 mg/dL
POTASSIUM [1]: 5.46 MEQ/L
SODIUM [1]: 147 MEQ/L
TOTAL BILIRUBIN [1]: 0.22 mg/dL
TOTAL PROTEIN [1]: 6.1 G/DL
URIC ACID [1]: 1.12 mg/dL
ABSOLUTE BASOPHIL [2]: 120 cells/µL
ABSOLUTE EOSINOPHIL [2]: 120 cells/µL
ABSOLUTE LYMPHOCYTE [2]: 10400 cells/µL
ABSOLUTE MONOCYTE [2]: 290 cells/µL
ABSOLUTE SEGMENTED NEUTROPHIL [2]: 1840 cells/µL
BASOPHIL [2]: 0.88%
EOSINOPHIL [2]: 0.88%
ERYTHROCYTE COUNT [2]: 7.68 x10E6/uL
HEMATOCRIT [2]: 45.32%
HEMOGLOBIN [2]: 14.88 G/DL
LEUKOCYTE COUNT [2]: 12.88 x10E3/uL
LYMPHOCYTE [2]: 80.34%
MEAN CORPUSCULAR HEMOGLOBIN [2]: 19.4 pg
MEAN CORPUSCULAR HEMOGLOBIN CONCENTRATION [2]: 32.88 G/DL
MEAN CORPUSCULAR VOLUME [2]: 59.02 fL
MONOCYTE [2]: 2.26%
NEUTROPHIL [2]: 15.14%
PLATELET COUNT [2]: 1513.4 x10E3/uL
ABSOLUTE BASOPHIL [3]: 97 cells/µL
ABSOLUTE EOSINOPHIL [3]: 87 cells/µL
ABSOLUTE LYMPHOCYTE [3]: 9100 cells/µL
ABSOLUTE MONOCYTE [3]: 180 cells/µL
ABSOLUTE SEGMENTED NEUTROPHIL [3]: 1340 cells/µL
BASOPHIL [3]: 0.88%
EOSINOPHIL [3]: 0.84%
ERYTHROCYTE COUNT [3]: 7.95 x10E6/uL
HEMATOCRIT [3]: 44.83%
HEMOGLOBIN [3]: 14.88 G/DL
LEUKOCYTE COUNT [3]: 10.86 x10E3/uL
LYMPHOCYTE [3]: 83.57%
MEAN CORPUSCULAR HEMOGLOBIN [3]: 18.72 pg
MEAN CORPUSCULAR HEMOGLOBIN CONCENTRATION [3]: 33.24 G/DL
MEAN CORPUSCULAR VOLUME [3]: 56.35 fL
MONOCYTE [3]: 1.64%
NEUTROPHIL [3]: 12.66%
PLATELET COUNT [3]: 1439.3 x10E3/uL
ALANINE AMINOTRANSFERASE [2]: 30.4 u/L
ALBUMIN [2]: 3.44 G/DL
ALKALINE PHOSPHATASE [2]: 190.6 u/L
ASPARTATE AMINOTRANSFERASE [2]: 79.6 u/L
BLOOD UREA NITROGEN [2]: 13 mg/dL
CHLORIDE [2]: 107.8 MEQ/L
CHOLESTEROL [2]: 70.8 mg/dL
CREATINE PHOSPHOKINASE [2]: 151.2 u/L
CREATININE [2]: 0.5 mg/dL
GLUCOSE [2]: 119.8 mg/dL
LACTATE DEHYDROGENASE [2]: 78.6 u/L
LIPASE [2]: 32 u/L
PHOSPHORUS [2]: 9.94 mg/dL
POTASSIUM [2]: 5.62 MEQ/L
SODIUM [2]: 150.6 MEQ/L
TOTAL BILIRUBIN [2]: 0.2 mg/dL
TOTAL PROTEIN [2]: 6.18 G/DL
URIC ACID [2]: 0.66 mg/dL
ALANINE AMINOTRANSFERASE [3]: 29.6 u/L
ALBUMIN [3]: 3.6 G/DL
ALKALINE PHOSPHATASE [3]: 128.89 u/L
ASPARTATE AMINOTRANSFERASE [3]: 84.7 u/L
BLOOD UREA NITROGEN [3]: 17.7 mg/dL
CHLORIDE [3]: 105.6 MEQ/L
CHOLESTEROL [3]: 62.1 mg/dL
CREATINE PHOSPHOKINASE [3]: 292.2 u/L
CREATININE [3]: 0.65 mg/dL
GLUCOSE [3]: 136.2 mg/dL
LACTATE DEHYDROGENASE [3]: 129.6 u/L
LIPASE [3]: 17.1 u/L
PHOSPHORUS [3]: 10.04 mg/dL
POTASSIUM [3]: 6.81 MEQ/L
SODIUM [3]: 152.5 MEQ/L
TOTAL BILIRUBIN [3]: 0.26 mg/dL
TOTAL PROTEIN [3]: 6.48 G/DL
URIC ACID [3]: 1.45 mg/dL
ABSOLUTE BASOPHIL [4]: 0 CELLS/uL
ABSOLUTE EOSINOPHIL [4]: 0 CELLS/uL
ABSOLUTE LYMPHOCYTE [4]: 7637.67 CELLS/uL
ABSOLUTE MONOCYTE [4]: 67.83 CELLS/uL
ABSOLUTE SEGMENTED NEUTROPHIL [4]: 661.17 CELLS/uL
BASOPHIL [4]: 0%
